Counter-ions that a name gives are not always drawn. Like-named read-outs stand apart in the source and are kept apart here.
Experiments:
Ba/F3 EML4-ALK L1196M = Ba/F3 EML4-ALK L1196M (Homo sapiens, UniProt Q9UM73, L1196M, cells depend on it); assay: ALK inhibitory activity in Ba/F3 EML4-ALK L1196M, SRB staining of live cells; conditions: read-out: Ba/F3 EML4-ALK L1196M, three days
Procedure: Particularly, 4,000 ALK L1196M cells containing ALK enzyme were distributed in each well of a 96 well plate together with 100 μl of DMEM (Dulbecco's Modified Eagle's Medium). […] DMSO (dimethylsulfoxide) was added to the well that was not loaded with the compound by the same amount as the compound. Three days after the addition of the compound, DMEM was eliminated. 10% TCA (trichloroacetic acid) was added to fix the cells. The wells were washed with running water three times and the live cells were stained with SRB solution (1× sulphorodamine B). Then, OD was measured to calculate the population of the live cells.

ALK enzyme = ALK enzyme (Homo sapiens, UniProt Q9UM73); assay: Anaplastic lymphoma kinase (ALK) inhibitory activity, HTRF kinase assay; assay type: biochemical
Sequence of ALK enzyme (Q9UM73 19-1620): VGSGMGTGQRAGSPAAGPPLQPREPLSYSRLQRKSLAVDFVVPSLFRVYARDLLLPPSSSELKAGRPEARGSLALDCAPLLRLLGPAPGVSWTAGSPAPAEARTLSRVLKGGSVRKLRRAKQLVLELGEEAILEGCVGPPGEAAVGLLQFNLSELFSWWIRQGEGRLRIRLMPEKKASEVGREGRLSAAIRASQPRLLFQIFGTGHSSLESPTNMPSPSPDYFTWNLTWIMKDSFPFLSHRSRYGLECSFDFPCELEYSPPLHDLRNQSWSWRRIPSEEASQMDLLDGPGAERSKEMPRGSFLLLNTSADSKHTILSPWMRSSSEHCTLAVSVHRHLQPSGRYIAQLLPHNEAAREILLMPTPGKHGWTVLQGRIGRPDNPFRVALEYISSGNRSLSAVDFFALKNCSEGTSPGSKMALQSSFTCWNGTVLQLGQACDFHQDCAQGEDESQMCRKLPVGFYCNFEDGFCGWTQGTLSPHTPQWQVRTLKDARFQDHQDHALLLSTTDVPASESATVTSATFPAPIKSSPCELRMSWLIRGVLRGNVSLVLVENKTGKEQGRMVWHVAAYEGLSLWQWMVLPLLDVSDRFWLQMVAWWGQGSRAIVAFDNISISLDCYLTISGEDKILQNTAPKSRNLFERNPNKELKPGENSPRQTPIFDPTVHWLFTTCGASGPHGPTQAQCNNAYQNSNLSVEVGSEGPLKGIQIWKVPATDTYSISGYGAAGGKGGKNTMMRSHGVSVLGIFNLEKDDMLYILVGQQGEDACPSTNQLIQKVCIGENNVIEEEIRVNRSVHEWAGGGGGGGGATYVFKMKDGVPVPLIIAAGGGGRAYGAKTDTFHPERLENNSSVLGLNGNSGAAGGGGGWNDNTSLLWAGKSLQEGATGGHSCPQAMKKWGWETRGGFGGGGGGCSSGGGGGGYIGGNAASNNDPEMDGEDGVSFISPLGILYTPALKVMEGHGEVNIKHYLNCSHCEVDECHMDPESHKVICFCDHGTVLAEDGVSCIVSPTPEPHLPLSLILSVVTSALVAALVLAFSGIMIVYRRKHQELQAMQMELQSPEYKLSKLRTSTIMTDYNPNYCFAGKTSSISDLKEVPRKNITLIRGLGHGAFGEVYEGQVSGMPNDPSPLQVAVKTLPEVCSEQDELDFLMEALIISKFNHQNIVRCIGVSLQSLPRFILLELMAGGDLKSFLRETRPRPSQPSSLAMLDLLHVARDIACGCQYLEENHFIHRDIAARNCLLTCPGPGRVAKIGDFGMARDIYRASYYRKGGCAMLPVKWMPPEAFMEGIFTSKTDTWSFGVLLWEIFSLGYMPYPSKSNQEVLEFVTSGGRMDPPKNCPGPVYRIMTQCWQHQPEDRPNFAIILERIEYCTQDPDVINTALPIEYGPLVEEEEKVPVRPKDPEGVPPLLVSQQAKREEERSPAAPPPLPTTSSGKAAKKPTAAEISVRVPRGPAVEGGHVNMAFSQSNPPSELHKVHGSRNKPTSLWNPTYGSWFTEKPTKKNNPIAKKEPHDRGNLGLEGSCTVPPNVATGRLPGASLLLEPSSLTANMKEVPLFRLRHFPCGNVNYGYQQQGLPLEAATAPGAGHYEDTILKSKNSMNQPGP

[1] = test system: H3122, the non-small cell lung cancer cell line; assay: ALK inhibitory activity in H3122, SRB staining of live cells; assay type: cell-based; conditions: Homo sapiens
Procedure: […] One day later, the compound of the present invention was added to each well at different concentrations of 10 μM, 2 μM, 0.4 μM, 0.08 μM, […], and 0.00032 μM. DMSO (dimethylsulfoxide) was added to the well that was not loaded with the compound by the same amount as the compound. Three days after the addition of the compound, DMEM was eliminated. 10% TCA (trichloroacetic acid) was added to fix the cells. The wells were washed with running water three times and the live cells were stained with SRB solution (1× sulphorodamine B). Then, OD was measured to calculate the population of the live cells. IC50 of the experimental compound used in the experiment above was calculated by using prism software (Version 5.01, Graphpad).
Table 2 presents the ALK inhibitory activity of the compounds of the examples of the present invention in H3122 containing ALK enzyme.

[2] = test system: ALK L1196M cells containing ALK enzyme; assay: ALK inhibitory activity in ALK L1196M cells, SRB staining of live cells; assay type: cell-based
Procedure: DMSO (dimethylsulfoxide) was added to the well that was not loaded with the compound by the same amount as the compound. Three days after the addition of the compound, DMEM was eliminated. 10% TCA (trichloroacetic acid) was added to fix the cells. The wells were washed with running water three times and the live cells were stained with SRB solution (1× sulphorodamine B). Then, OD was measured to calculate the population of the live cells. IC50 of the experimental compound used in the experiment above was calculated by using prism software (Version 5.01, Graphpad). […] Table 2 presents the ALK inhibitory activity of the compounds of the examples of the present invention in ALK L1196M containing ALK enzyme.

[3] = NCI-H3122, 72 h, three days, SRB, read-out: Non-small cell lung cancer cell line H3122
[4] = NCI-H3122, read-out: ALK inhibitory activity in H3122 containing ALK enzyme at the concentration range
[5] = 72 h, ALK L1196M cells, three days, SRB, read-out: ALK L1196M

Sequence of Ba/F3 EML4-ALK L1196M (Q9UM73 whole entry L1196M): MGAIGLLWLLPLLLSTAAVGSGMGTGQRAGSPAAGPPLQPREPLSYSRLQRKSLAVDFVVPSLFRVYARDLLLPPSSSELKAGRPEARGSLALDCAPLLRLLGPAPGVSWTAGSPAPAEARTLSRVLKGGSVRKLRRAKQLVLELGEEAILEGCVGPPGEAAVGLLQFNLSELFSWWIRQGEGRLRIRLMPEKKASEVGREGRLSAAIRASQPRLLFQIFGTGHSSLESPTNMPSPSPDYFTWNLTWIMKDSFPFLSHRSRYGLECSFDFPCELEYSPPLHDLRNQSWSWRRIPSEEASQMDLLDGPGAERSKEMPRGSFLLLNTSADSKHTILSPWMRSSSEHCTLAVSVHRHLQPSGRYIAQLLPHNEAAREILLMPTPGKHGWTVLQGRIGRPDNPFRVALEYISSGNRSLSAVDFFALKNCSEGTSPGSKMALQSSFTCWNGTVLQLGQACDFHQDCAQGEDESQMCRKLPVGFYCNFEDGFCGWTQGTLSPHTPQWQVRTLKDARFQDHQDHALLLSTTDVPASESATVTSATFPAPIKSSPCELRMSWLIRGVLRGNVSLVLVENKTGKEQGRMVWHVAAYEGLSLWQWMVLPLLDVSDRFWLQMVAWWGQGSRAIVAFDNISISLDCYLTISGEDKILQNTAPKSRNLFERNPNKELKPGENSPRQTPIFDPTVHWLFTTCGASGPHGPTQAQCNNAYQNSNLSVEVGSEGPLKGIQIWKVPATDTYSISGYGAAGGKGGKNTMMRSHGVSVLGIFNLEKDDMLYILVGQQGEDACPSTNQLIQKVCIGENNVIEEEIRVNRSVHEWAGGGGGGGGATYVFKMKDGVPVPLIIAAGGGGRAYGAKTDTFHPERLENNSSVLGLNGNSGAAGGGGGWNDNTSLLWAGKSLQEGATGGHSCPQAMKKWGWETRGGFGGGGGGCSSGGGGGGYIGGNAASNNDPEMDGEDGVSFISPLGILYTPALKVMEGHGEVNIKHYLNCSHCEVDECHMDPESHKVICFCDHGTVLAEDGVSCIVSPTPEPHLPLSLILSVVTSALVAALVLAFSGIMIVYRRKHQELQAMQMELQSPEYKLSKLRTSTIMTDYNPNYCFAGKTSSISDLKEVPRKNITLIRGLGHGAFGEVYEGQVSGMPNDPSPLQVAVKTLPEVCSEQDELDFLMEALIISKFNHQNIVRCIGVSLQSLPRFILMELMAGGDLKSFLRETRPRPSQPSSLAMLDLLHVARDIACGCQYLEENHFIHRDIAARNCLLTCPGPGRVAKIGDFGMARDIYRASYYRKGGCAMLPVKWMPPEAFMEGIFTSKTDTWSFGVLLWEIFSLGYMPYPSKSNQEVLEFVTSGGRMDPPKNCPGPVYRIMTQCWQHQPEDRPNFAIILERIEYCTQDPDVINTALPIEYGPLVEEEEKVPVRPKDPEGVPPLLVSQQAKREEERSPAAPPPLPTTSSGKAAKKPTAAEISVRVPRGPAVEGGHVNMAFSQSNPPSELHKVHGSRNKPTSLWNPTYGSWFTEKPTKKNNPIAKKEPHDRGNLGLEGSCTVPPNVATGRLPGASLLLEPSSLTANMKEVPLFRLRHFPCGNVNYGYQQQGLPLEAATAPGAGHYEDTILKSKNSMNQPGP

Compound	GI50 (Ba/F3 EML4-ALK L1196M) [nM]	IC50 (ALK enzyme; HTRF, read-out: ALK) [nM]	IC50 (ALK enzyme; read-out: anaplastic lymphoma kinase (ALK) inhibitory activity at the concentration) [nM]	IC50 [1, 3] [nM]	IC50 [1, 4] [nM]	IC50 [2, 5] [nM]	IC50 ([2]; ALK L1196M cells, read-out: ALK inhibitory activity in ALK L1196M containing ALK enzyme at the concentration) [nM]	IC50 ([2]; 72 h, read-out: ALK L1196M) [nM]
COc1cc2c(cc1Nc1ncc(Cl)c(Nc3ccccc3S(=O)(=O)C(C)C)n1)CCC(N1CCOCC1)C2 (centres unmarked) [Example 1, 5-chloro-N4-(2-(isopropylsulfonyl)phenyl)-N2-(3-methoxy-6-morpholino-5,6,7,8-tetrahydronaphthalene-2-yl)pyrimidine-2,4-diamine]	10 to 100	< 10	≤ 10	10 to 100	10 to 100	10 to 100	–	–
COc1cc2c(cc1Nc1ncc(Cl)c(Nc3ccccc3S(=O)(=O)C(C)C)n1)CCC(N1CCNCC1)C2 (centres unmarked) [Example 2, 5-chloro-N4-(2-(isopropylsulfonyl)phenyl)-N2-(3-methoxy-6-(piperazine-1-yl)-5,6,7,8-tetrahydronaphthalene-2-yl)pyrimidine-2,4-diamine]	–	–	–	10 to 100	10 to 100	< 10	≤ 10	–
COc1cc2c(cc1Nc1ncc(Cl)c(Nc3ccccc3S(=O)(=O)C(C)C)n1)C(=O)C(N1CCOCC1)CC2 (centres unmarked) [Example 3, 7-(5-chloro-4-(2-(isopropylsulfonyl)phenylamino)pyrimidine-2-ylamino)6-methoxy-2-morpholino-3,4-dihydronaphthalene-1(2H)-one]	> 100	10 to 100	–	> 100	–	–	–	> 100
COc1cc2c(cc1Nc1ncc(Cl)c(Nc3ccccc3S(=O)(=O)C(C)C)n1)CCC(NC(=O)C(F)(F)F)C2(C)C (centres unmarked) [Example 4, N-(6-(5-chloro-4-(2-(isopropylsulfonyl)phenylamino)pyrimidine-2-ylamino)-7-methoxy-1,1-dimethyl-1,2,3,4-tetrahydronaphthalene-2-yl)-2,2,2-trifluoroacetamide]	> 100	> 100	–	> 100	–	> 100	–	–
COc1cc2c(cc1Nc1ncc(Cl)c(Nc3ccccc3S(=O)(=O)C(C)C)n1)CCC(=O)C2(C)C [Example 5, 6-(5-chloro-4-(2-(isopropylsulfonyl)phenylamino)pyrimidine-2-ylamino)-7-methoxy-1,1-dimethyl-3,4-dihydronaphthalene-2(1H)-one]	–	–	–	10 to 100	10 to 100	–	–	–
COc1cc2c(cc1Nc1ncc(Cl)c(Nc3ccccc3S(=O)(=O)C(C)C)n1)C(C)(C)C(=O)CC2 [Example 6, 7-(5-chloro-4-(2-(isopropylsulfonyl)phenylamino)pyrimidine-2-ylamino)-6-methoxy-1,1-dimethyl-3,4-dihydronaphthalene-2(1H)-one]	–	–	–	> 100	–	–	–	–
COc1cc2c(cc1Nc1ncc(Cl)c(Nc3ccccc3S(=O)(=O)C(C)C)n1)C(C)(C)C(NC(=O)C(F)(F)F)CC2 (centres unmarked) [Example 7, N-(7-(5-chloro-4-(2-(isopropylsulfonyl)phenylamino)pyrimidine-2-ylamino)-6-methoxy-1,1-dimethyl-1,2,3,4-tetrahydronaphthalene-2-yl)-2,2,2-trifluoroacetamide]	> 100	> 100	–	> 100	–	> 100	–	–
COc1cc2c(cc1Nc1ncc(Cl)c(Nc3ccccc3S(=O)(=O)C(C)C)n1)CC/C(=N\N1CCOCC1)C2(C)C [Example 15, (E)-5-chloro-N4-(2-(isopropylsulfonyl)phenyl)-N2-(3-methoxy-5,5-dimethyl-6-(morpholinoimino)-5,6,7,8-tetrahydronaphthalene-2-yl)pyrimidine-2,4-diamine]	> 100	10 to 100	–	10 to 100	10 to 100	10 to 100	–	–
COc1cc2c(cc1Nc1ncc(Cl)c(Nc3ccccc3S(=O)(=O)C(C)C)n1)C(C)(C)/C(=N/N1CCOCC1)CC2 [Example 17, (E)-5-chloro-N4-(2-(isopropylsulfonyl)phenyl)-N2-(3-methoxy-8,8-dimethyl-7-(morpholinoimino)-5,6,7,8-tetrahydronaphthalene-2-yl)pyrimidine-2,4-diamine]	> 100	> 100	–	> 100	–	> 100	–	–
COc1cc2c(cc1Nc1ncc(Cl)c(Nc3ccccc3S(=O)(=O)C(C)C)n1)CCC(NC=N)C2(C)C (centres unmarked) [Example 29, N-(6-((5-chloro-4-((2-(isopropylsulfonyl)phenyl)amino)pyridine-2-yl)amino)-7-methoxy-1,1-dimethyl-1,2,3,4-tetrahydronaphthalene-2yl)formimideamide]	> 100	–	–	10 to 100	–	< 10	–	–
COc1cc2c(cc1Nc1ncc(Cl)c(Nc3ccccc3S(=O)(=O)C(C)C)n1)CCC(NC(C)=N)C2(C)C (centres unmarked) [Example 30]	> 100	–	–	10 to 100	–	< 10	–	–
COc1cc2c(cc1Nc1ncc(Cl)c(Nc3ccccc3S(=O)(=O)C(C)C)n1)CCC(NC(=N)N)C2(C)C (centres unmarked) [Example 31]	> 100	–	–	> 100	–	< 10	–	–

Continued, in another order:

GI50 (Ba/F3 EML4-ALK L1196M) [nM]	IC50 (ALK enzyme; HTRF, read-out: ALK) [nM]	IC50 (ALK enzyme; read-out: anaplastic lymphoma kinase (ALK) inhibitory activity at the concentration) [nM]	IC50 [1, 3] [nM]	IC50 [1, 4] [nM]	Compound	IC50 [2, 5] [nM]	IC50 ([2]; ALK L1196M cells, read-out: ALK inhibitory activity in ALK L1196M containing ALK enzyme at the concentration) [nM]	IC50 ([2]; 72 h, read-out: ALK L1196M) [nM]
> 100	> 100	–	> 100	–	COc1cc2c(cc1Nc1ncc(Cl)c(Nc3ccccc3S(=O)(=O)C(C)C)n1)CC/C(=N\O)C2(C)C [Example 8, (E)-6-(5-chloro-4-(2-(isopropylsulfonyl)phenylamino)pyrimidine-2-ylamino)-7-methoxy-1,1-dimethyl-3,4-dihydronaphthalene-2(1H)-one oxime]	–	–	–
> 100	10 to 100	–	> 100	–	COc1cc2c(cc1Nc1ncc(Cl)c(Nc3ccccc3S(=O)(=O)C(C)C)n1)CC/C(=N\NC(C)=O)C2(C)C [Example 9, (E)-N-(6-(5-chloro-4-(2-(isopropylsulfonyl)phenylamino)pyrimidine-2-ylamino)-7-methoxy-1,1-dimethyl-3,4-dihydronaphthalene-2(1H)-yladene)acetohydrazide]	10 to 100	–	–
> 100	10 to 100	–	> 100	–	COc1cc2c(cc1Nc1ncc(Cl)c(Nc3ccccc3S(=O)(=O)C(C)C)n1)CC/C(=N\NC(N)=O)C2(C)C [Example 10, (E)-2-(6-(5-chloro-4-(2-(isopropylsulfonyl)phenylamino)pyrimidine-2-ylamino)-7-methoxy-1,1-dimethyl-3,4-dihydronaphthalene-2(1H)-yladene)hydrogencarboxamide]	10 to 100	–	–
> 100	10 to 100	–	> 100	–	COc1cc2c(cc1Nc1ncc(Cl)c(Nc3ccccc3S(=O)(=O)C(C)C)n1)CC/C(=N\NC(=N)N)C2(C)C [Example 11, (E)-2-(6-(5-chloro-4-(2-(isopropylsulfonyl)phenylamino)pyrimidine-2-ylamino)-7-methoxy-1,1-dimethyl-3,4-dihydronaphthalene-2(1H)-yladene)hydrogencarboxamideamide]	10 to 100	–	–
> 100	> 100	–	> 100	–	COc1cc2c(cc1Nc1ncc(Cl)c(Nc3ccccc3S(=O)(=O)C(C)C)n1)CC/C(=N\NC(=O)OC(C)(C)C)C2(C)C [Example 12, (E)-tert-but 2-(6-(5-chloro-4-(2-(isopropylsulfonyl)phenylamino)pyrimidine-2-ylamino)-7-methoxy-1,1-dimethyl-3,4-dihydronaphthalene-2(1H)-yladene)hydrazinecarboxylate]	–	–	–
> 100	10 to 100	–	10 to 100	10 to 100	COc1cc2c(cc1Nc1ncc(Cl)c(Nc3ccccc3S(=O)(=O)C(C)C)n1)CC/C(=N\N)C2(C)C [Example 13, (E)-5-chloro-N2-(6-hydrazono-3-methoxy-5,5-dimethyl-5,6,7,8-tetrahydronaphthalene-2-yl)-N4-(2-(isopropylsulfonyl)phenyl)pyrimidine-2,4-diamine hydrochloride]	10 to 100	–	–
> 100	> 100	–	> 100	–	COc1cc2c(cc1Nc1ncc(Cl)c(Nc3ccccc3S(=O)(=O)C(C)C)n1)C(C)(C)/C(=N/O)CC2 [Example 16, (E)-7-(5-chloro-4-(2-(isopropylsulfonyl)phenylamino)pyrimidine-2-ylamino)-6-methoxy-1,1-dimethyl-3,4-dihydronaphthalene-2(1H)-one oxime]	> 100	–	–
> 100	10 to 100	–	> 100	–	COc1cc2c(cc1Nc1ncc(Cl)c(Nc3ccccc3S(=O)(=O)C(C)C)n1)C(C)(C)/C(=N/NC(=N)N)CC2 [Example 18, (E)-2-(7-(5-chloro-4-(2-(isopropylsulfonyl)phenylamino)pyrimidine-2-ylamino)-6-methoxy-1,1-dimethyl-3,4-dihydronaphthalene-2(1H)-yladene)hydrogencarboxamideamide]	10 to 100	–	–

Reference: US10369149B2, “4-(2-amino-tetrahydronaphthalenyl)pyrimidine derivative, preparation method therefor, and pharmaceutical composition for preventing or treating cancer, containing same as active ingredient” (KOREA RESEARCH INSTITUTE OF CHEMICAL TECHNOLOGY, priority 2015, dated 2019)
